One test has as its system P-P70S6K (T389). As to the kind of experiment: Cell based AlphaLISA assay, inhibition of P-P70S6K (T389) (mTORC1 substrate phosphorylation) in MDA-MB-468 cells. The conditions noted are these: Homo sapiens, 4 h, AlphaLISA, two to four hours at 37° C., read-out: pIC50 for Inhibition of mTORC1 and mTORC2 Substrate Phosphorylation, P-P70S6K-(T389) (converted). A digest of the protocol:
(§1)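 After treatment, cells were lysed in the kit's buffer once assay medium was withdrawn. Duplicate Alpha measurements tracked each phospho-epitope, and dose-response data were fitted to IC50 following normalization to control wells.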

For the next test, the system named is P-Akt (S473). As to the kind of experiment: Cell based AlphaLISA assay, inhibition of P-Akt (S473) (mTORC2 substrate phosphorylation) in MDA-MB-468 cells. The conditions noted are these: Homo sapiens, AlphaLISA, two to four hours at 37° C., read-out: pIC50 for Inhibition of mTORC1 and mTORC2 Substrate Phosphorylation, p-AKT 1/2/3 -(S473) (converted). The procedure, abridged:
as §1

In a further test the test system is P-4E-BP1 (T37/46). As to the kind of experiment: Cell based AlphaLISA assay, inhibition of P-4E-BP1 (T37/46) (mTORC1 substrate phosphorylation) in MDA-MB-468 cells. The conditions noted are these: Homo sapiens, AlphaLISA, two to four hours at 37° C., read-out: pIC50 for Inhibition of mTORC1 and mTORC2 Substrate Phosphorylation, P-4E-BP1-(T37/46) (converted). A digest of the protocol: as §1

We go through 15 molecules from patent publication US20230093861A1, “RAPAMYCIN ANALOGS AS MTOR INHIBITORS” (Revolution Medicines, Inc., priority 2017, published 2023).

Molecules are shown by their SMILES. Where two headings read alike, the source gives them in different places.

As to `CO[C@H]1C[C@@H]2CC[C@@H](C)[C@@](O)(O2)C(=O)C(=O)N2CCCC[C@H]2C(=O)O[C@H]([C@H](C)C[C@@H]2CC[C@H](n3nncc3-c3cccc(-c4cn(CCOCCOCCOCCOCCOCCOCCOCCOCCC(=O)NCCCCn5nc(-c6ccc7oc(N)nc7c6)c6c(N)ncnc65)nn4)c3)[C@H](OC)C2)CC(=O)[C@H](C)/C=C(\C)[C@@H](O)[C@@H](OC)C(=O)[C@H](C)C[C@H](C)/C=C/C=C/C=C/1C` [Example 62], the IC50 is greater than 1000 nM in the test on P-P70S6K (T389); greater than 1000 nM in the test on P-Akt (S473) (MDA-MB-468, 4 h); greater than 1000 nM in the test with P-4E-BP1 (T37/46) (MDA-MB-468, 4 h).

As to `CO[C@H]1C[C@@H]2CC[C@@H](C)[C@@](O)(O2)C(=O)C(=O)N2CCCC[C@H]2C(=O)O[C@H]([C@H](C)C[C@@H]2CC[C@@H](O)[C@H](OC)C2)C/C(=N/OCc2cn(CCOCCOCCOCCOCCOCCOCCOCCOCCC(=O)NCCCCn3nc(-c4ccc5oc(N)nc5c4)c4c(N)ncnc43)nn2)[C@H](C)/C=C(\C)[C@@H](O)[C@@H](OC)C(=O)[C@H](C)C[C@H](C)/C=C/C=C/C=C/1C` [Example 63], the IC50 in the test with P-P70S6K (T389) was 10 to 1000 nM; in the test on P-Akt (S473) (MDA-MB-468, 4 h), 31.6 to 1000 nM; in the test with P-4E-BP1 (T37/46) (MDA-MB-468, 4 h), 31.6 to 1000 nM.

As for `CCO[C@@H]1C[C@@H]([C@H](C)C[C@@H]2CC[C@@H](O)[C@H](OC)C2)OC(=O)[C@@H]2CCCCN2C(=O)C(=O)[C@]2(O)O[C@@H](CC[C@H]2C)C[C@H](OC)/C(C)=C/C=C/C=C/[C@@H](C)C[C@@H](C)C(=NOCc2cn(CCOCCOCCOCCOCCOCCOCCOCCOCCC(=O)NCCCCn3nc(-c4ccc5oc(N)nc5c4)c4c(N)ncnc43)nn2)[C@H](OC)[C@H](O)/C(C)=C/[C@H]1C` [Example 64], the IC50 is less than 1 nM with P-P70S6K (T389); 31.6 to 1000 nM in the test on P-Akt (S473) (MDA-MB-468, 4 h); 3.16 to 31.6 nM in the test with P-4E-BP1 (T37/46) (MDA-MB-468, 4 h).

As to `CCO[C@@H]1C[C@@H]([C@H](C)C[C@@H]2CC[C@@H](O)[C@H](OC)C2)OC(=O)[C@@H]2CCCCN2C(=O)C(=O)[C@]2(O)O[C@@H](CC[C@H]2C)C[C@H](OC)/C(C)=C/C=C/C=C/[C@@H](C)C[C@@H](C)C(=NOCc2cn(CCOCCOCCOCCOCCOCCOCCC(=O)NCCCCn3nc(-c4ccc5oc(N)nc5c4)c4c(N)ncnc43)nn2)[C@H](OC)[C@H](O)/C(C)=C/[C@H]1C` [Example 65], the IC50 in the test on P-P70S6K (T389) was 1 to 10 nM; in the test with P-Akt (S473) (MDA-MB-468, 4 h), 31.6 to 1000 nM; in the test on P-4E-BP1 (T37/46) (MDA-MB-468, 4 h) it was 3.16 to 31.6 nM.

Turning to `COc1ccc(-c2ccc3ncc4c(c3c2)n(-c2ccc(N3CCN(c5ncc(CNC(=O)CCOCCOCCOCCOCCOCCOCCn6cc(CCCCO[C@@H]7CC[C@@H](C[C@@H](C)[C@@H]8CC(=O)[C@H](C)/C=C(\C)[C@@H](O)[C@@H](OC)C(=O)[C@H](C)C[C@H](C)/C=C/C=C/C=C(\C)[C@@H](OC)C[C@@H]9CC[C@@H](C)[C@@](O)(O9)C(=O)C(=O)N9CCCC[C@H]9C(=O)O8)C[C@H]7OC)nn6)cn5)CC3)c(C(F)(F)F)c2)c(=O)n4C)cn1` [Example 66], the IC50 in the test on P-P70S6K (T389) was less than 1 nM; in the test with P-Akt (S473) (MDA-MB-468, 4 h) it was less than 3.16 nM; in the test on P-4E-BP1 (T37/46) (MDA-MB-468, 4 h), less than 3.16 nM.

For `CO[C@H]1C[C@@H]2CC[C@@H](C)[C@@](O)(O2)C(=O)C(=O)N2CCCC[C@H]2C(=O)O[C@H]([C@H](C)C[C@@H]2CC[C@@H](OCCCCc3cn(CCOCCOCCOCCOCCOCCOCCC(=O)N4CCN(c5ccc(-n6c(=O)ccc7cnc8ccc(-c9cnc%10ccccc%10c9)cc8c76)cc5C(F)(F)F)CC4)nn3)[C@H](OC)C2)CC(=O)[C@H](C)/C=C(\C)[C@@H](O)[C@@H](OC)C(=O)[C@H](C)C[C@H](C)/C=C/C=C/C=C/1C` [Example 67], the IC50 with P-P70S6K (T389) was less than 1 nM; in the test on P-Akt (S473) (MDA-MB-468, 4 h), less than 3.16 nM; with P-4E-BP1 (T37/46) (MDA-MB-468, 4 h), less than 3.16 nM.

As for `CO[C@H]1C[C@@H]2CC[C@@H](C)[C@@](O)(O2)C(=O)C(=O)N2CCCC[C@H]2C(=O)O[C@H]([C@H](C)C[C@@H]2CC[C@@H](OCCCCc3cn(CCOCCOCCOCCOCCOCCOCCC(=O)NCCCCn4nc(-c5cnc6[nH]ccc6c5)c5c(N)ncnc54)nn3)[C@H](OC)C2)CC(=O)[C@H](C)/C=C(\C)[C@@H](O)[C@@H](OC)C(=O)[C@H](C)C[C@H](C)/C=C/C=C/C=C/1C` [Example 68], the IC50 with P-P70S6K (T389) was less than 1 nM; in the test with P-Akt (S473) (4 h), 31.6 to 1000 nM; in the test with P-4E-BP1 (T37/46) (4 h) it was 3.16 to 31.6 nM.

Turning to `CO[C@H]1C[C@@H]2CC[C@@H](C)[C@@](O)(O2)C(=O)C(=O)N2CCCC[C@H]2C(=O)O[C@H]([C@H](C)C[C@@H]2CC[C@@H](OCCCCc3cn(CCOCCOCCOCCOCCOCCOCCOCCOCCC(=O)NCCCCn4nc(-c5cnc6[nH]ccc6c5)c5c(N)ncnc54)nn3)[C@H](OC)C2)CC(=O)[C@H](C)/C=C(\C)[C@@H](O)[C@@H](OC)C(=O)[C@H](C)C[C@H](C)/C=C/C=C/C=C/1C` [Example 69], the results for the IC50 with P-P70S6K (T389), in the test on P-Akt (S473) (4 h) and in the test with P-4E-BP1 (T37/46) (4 h) were less than 1 nM, 3.16 to 31.6 nM and less than 3.16 nM, respectively.

Turning to `CO[C@H]1C[C@@H]2CC[C@@H](C)[C@@](O)(O2)C(=O)C(=O)N2CCCC[C@H]2C(=O)O[C@H]([C@H](C)C[C@@H]2CC[C@@H](OCCCCc3cn(CCOCCOCCOCCOCCOCCOCCC(=O)NCCCCn4nc(-c5cnc6[nH]ccc6c5)c5c(N)ncnc54)nn3)[C@H](OC)C2)C[C@@H](OC)[C@H](C)/C=C(\C)[C@@H](O)[C@@H](OC)C(=O)[C@H](C)C[C@H](C)/C=C/C=C/C=C/1C` [Example 70], the IC50 was 1 to 10 nM in the test on P-P70S6K (T389); greater than 1000 nM in the test with P-Akt (S473) (MDA-MB-468, 4 h); greater than 1000 nM in the test on P-4E-BP1 (T37/46) (MDA-MB-468, 4 h).

On to `COC(=O)N[C@H]1C[C@@H]2CC[C@@H](C)[C@@](O)(O2)C(=O)C(=O)N2CCCC[C@H]2C(=O)O[C@H]([C@H](C)C[C@@H]2CC[C@@H](OCCCCc3cn(CCOCCOCCOCCOCCOCCOCCOCCOCCC(=O)NCCCCn4nc(-c5cc6cc(O)ccc6[nH]5)c5c(N)ncnc54)nn3)[C@H](OC)C2)CC(=O)[C@H](C)/C=C(\C)[C@@H](O)[C@@H](OC)C(=O)[C@H](C)C[C@H](C)/C=C/C=C/C=C/1C` [Example 71], for which the IC50 was 1 to 10 nM in the test on P-P70S6K (T389); greater than 1000 nM in the test on P-Akt (S473) (MDA-MB-468, 4 h); 3.16 to 31.6 nM with P-4E-BP1 (T37/46) (MDA-MB-468, 4 h).

As for `COC(=O)N[C@H]1C[C@@H]2CC[C@@H](C)[C@@](O)(O2)C(=O)C(=O)N2CCCC[C@H]2C(=O)O[C@H]([C@H](C)C[C@@H]2CC[C@@H](OCCCCc3cn(CCOCCOCCOCCOCCOCCOCCOCCOCCC(=O)N4CCN(c5ccc(-n6c(=O)n(C)c7cnc8ccc(-c9ccc(OC)nc9)cc8c76)cc5C(F)(F)F)CC4)nn3)[C@H](OC)C2)CC(=O)[C@H](C)/C=C(\C)[C@@H](O)[C@@H](OC)C(=O)[C@H](C)CC(C)/C=C/C=C/C=C/1C` (stereo partly drawn) [Example 72], the IC50 in the test with P-P70S6K (T389) is less than 1 nM; with P-Akt (S473) (MDA-MB-468, 4 h), less than 3.16 nM; in the test on P-4E-BP1 (T37/46) (MDA-MB-468, 4 h), less than 3.16 nM.

With `COC(=O)N[C@H]1C[C@@H]2CC[C@@H](C)[C@@](O)(O2)C(=O)C(=O)N2CCCC[C@H]2C(=O)O[C@H]([C@H](C)C[C@@H]2CC[C@@H](OCCCCc3cn(CCOCCOCCOCCOCCOCCOCCC(=O)N4CCN(c5ccc(-n6c(=O)n(C)c7cnc8ccc(-c9ccc(OC)nc9)cc8c76)cc5C(F)(F)F)CC4)nn3)[C@H](OC)C2)CC(=O)[C@H](C)/C=C(\C)[C@@H](O)[C@@H](OC)C(=O)[C@H](C)C[C@H](C)/C=C/C=C/C=C/1C` [Example 73], the IC50 was less than 1 nM in the test on P-P70S6K (T389); less than 3.16 nM in the test on P-Akt (S473) (MDA-MB-468, 4 h); less than 3.16 nM in the test with P-4E-BP1 (T37/46) (MDA-MB-468, 4 h).

In the case of `CO[C@@H]1C[C@H](C[C@@H](C)[C@@H]2CC(=O)[C@H](C)/C=C(\C)[C@@H](O)[C@@H](OC)C(=O)[C@H](C)C[C@H](C)/C=C/C=C/C=C(\C)[C@@H](c3ccco3)C[C@@H]3CC[C@@H](C)[C@@](O)(O3)C(=O)C(=O)N3CCCC[C@H]3C(=O)O2)CC[C@H]1OCCCCc1cn(CCOCCOCCOCCOCCOCCOCCOCCOCCC(=O)NCCCCn2nc(-c3cc4cc(O)ccc4[nH]3)c3c(N)ncnc32)nn1` [Example 76], the IC50 in the test on P-P70S6K (T389) was less than 1 nM; in the test on P-Akt (S473) (MDA-MB-468, 4 h), 3.16 to 31.6 nM; with P-4E-BP1 (T37/46) (MDA-MB-468, 4 h), less than 3.16 nM.

Turning to `CO[C@H]1C[C@@H]2CC[C@@H](C)[C@@](O)(O2)C(=O)C(=O)N2CCCC[C@H]2C(=O)O[C@H]([C@H](C)C[C@@H]2CC[C@@H](OCCCCc3cn(CCOCCOCCOCCOCCOCCOCCOCCOCCC(=O)NCCCCn4nc(-c5ccc6oc(N)nc6c5)c5c(N)ncnc54)nn3)[C@H](OC)C2)C[C@@H](OC)[C@H](C)/C=C(\C)[C@@H](O)[C@@H](OC)C(=O)[C@H](C)C[C@H](C)/C=C/C=C/C=C/1C` [Example 77], the IC50 is less than 1 nM with P-P70S6K (T389); 3.16 to 31.6 nM in the test on P-Akt (S473) (MDA-MB-468, 4 h); less than 3.16 nM with P-4E-BP1 (T37/46) (MDA-MB-468, 4 h).

Consider `CO[C@H]1C[C@@H]2CC[C@@H](C)[C@@](O)(O2)C(=O)C(=O)N2CCCC[C@H]2C(=O)O[C@H]([C@H](C)C[C@@H]2CC[C@@H](O)[C@H](OC)C2)C[C@@H](O)[C@H](C)/C=C(\C)[C@@H](O)[C@@H](OC)C(=NOCc2cn(CCOCCOCCOCCOCCOCCOCCOCCOCCC(=O)NCCCCn3nc(-c4cnc5[nH]ccc5c4)c4c(N)ncnc43)nn2)[C@H](C)C[C@H](C)/C=C/C=C/C=C/1C` [Example 79], for which the IC50 with P-P70S6K (T389) was less than 1 nM; with P-Akt (S473) (MDA-MB-468, 4 h), 31.6 to 1000 nM; in the test with P-4E-BP1 (T37/46) (MDA-MB-468, 4 h), 3.16 to 31.6 nM.
